{
  "source": "patent US7381428B2",
  "about": "“Stabilized lanthanum carbonate compositions” (Shire International Licensing B.V., priority 2003, dated 2008)",
  "type_in_all_cases": "physicochemical",
  "key": {"[1]": {"experiment": "Degradation to lanthanum hydroxycarbonate at room temperature / standard ambient conditions"}, "[2]": {"experiment": "Thermal and moisture stress study of lanthanum carbonate/excipient mixtures, decarboxylation to lanthanum hydroxycarbonate (HC) monitored by XRPD", "experimental": "Excipient compatibility studies of hydrated lanthanum carbonate having a water content approximately equivalent to 4-5 moles of water and anhydrous lanthanum carbonate were performed to determine whether different classes of saccharide excipients would retard or prevent the appearance of decarboxylation products in thermally- and moisture-stressed solid lanthanum carbonate mixtures.\nConditions which would cause the formation of decarboxylation products in substantially pure hydrated lanthanum carbonate within one week were used. Mixtures of 1:1 or 96:4 (by weight) of hydrated lanthanum carbonate and a test excipient or 1:1 (by weight) anhydrous lanthanum carbonate and a test excipient were prepared and stressed, and samples were analyzed by XRPD (X-ray powder diffraction) as a function of exposure time.\nWeighed samples of hydrated lanthanum carbonate/excipient (1:1 or 96:4 by weight) or anhydrous lanthanum carbonate/excipient (1:1 by weight) were sealed into scintillation vials and placed onto a Turbula mixer. Samples were mixed for ten minutes to ensure sample homogeneity.\nSaturated salt solutions of Na2SO4.10H2O (˜95% RH (relative humidity)) or NaNO3 (65% RH) were prepared and placed into sealed chambers. The chambers were placed into a 60° C. oven overnight and the presence of solids was confirmed after 24 hours. These chambers were then subsequently used for the stressing studies of the various excipient/lanthanum carbonate mixtures. The lower humidity conditions were utilized for the D-sorbitol and dextrates excipients because they deliquesce under the more extreme conditions of 60° C./95% RH.\nXRPD analyses were performed using a Shimadzu XRD-6000 X-ray powder diffractometer using Cu Kα radiation. […]\nAt the experimental onset, the hydrated lanthanum carbonate was stressed under two conditions, 60° C./95% RH and 60° C./65% RH, in order to establish a baseline for monitoring decarboxylation. Individual samples were pulled after 1, 2, 3, 4, and 7 days and immediately analyzed by XRPD. […]"}, "[3]": {"experiment": "Decarboxylation of hydrated lanthanum carbonate at standard ICH stability conditions, lanthanum hydroxycarbonate content by XRPD", "conditions": "25° C./60% RH, 30° C./60% RH and 40° C./75% RH, up to 2 years", "experimental": "Unformulated hydrated lanthanum carbonate and formulated hydrated lanthanum carbonate tablets containing approximately 50% (by weight) dextrates were exposed to the standard ICH stability conditions of 25° C./60% RH, 30° C./60% RH and 40° C./75% RH for a period up to 2 years. Samples were removed periodically over this time and tested for their lanthanum hydroxycarbonate content using x-ray powder diffraction."}},
  "data": [
    {"molecule": "O=C([O-])[O-].O=C([O-])[O-].O=C([O-])[O-].[La+3].[La+3]", "note": "[substantially pure lanthanum carbonate, La2(CO3)3.xH2O]", "values": [
      {"measurement": "time within which degradation to lanthanum hydroxycarbonate occurs", "setting": "[1]", "value": "9-12 months"},
      {"measurement": "time after which decarboxylation product HC was initially seen (XRPD)", "setting": "[2]; 60° C./95% RH", "value": 1, "unit": "days"}
    ]},
    {"molecule": "hydrated lanthanum carbonate", "values": [
      {"measurement": "degradation (decarboxylation) to lanthanum hydroxycarbonate", "setting": "[3]", "value": "significant degradation"},
      {"measurement": "time after which decarboxylation product HC was initially seen (XRPD)", "setting": "[2]; 60° C./65% RH", "value": "single"},
      {"measurement": "time after which decarboxylation product HC was initially seen (XRPD)", "setting": "[2]; 60° C./95% RH", "value": "one"}
    ]}
  ]
}
